In ChEMBL document CHEMBL1201862, “PubChem BioAssay data set” (2004):
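96-well plates; 48 h exposure; 5 concentrations. Endpoints by linear interpolation between flanking doses. Not reached: highest tested concentration assigned. GI50: concentration for 50% inhibition of growth.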 The source made the active and inactive calls. No stated cut-off is given here; in the data, active = GI50 up to about 1.1 µM and inactive = higher.

Assays:
Test in all cases: DTP human tumour cell line panel, 48 h
786-0 = system: 786-0
A498 = system: A498
ACHN = system: ACHN
CCRF-CEM = system: CCRF-CEM
COLO 205 = system: COLO 205
EKVX = system: EKVX
HCT-116 = system: HCT-116
NCI-H226 = system: NCI-H226
NCI-H23 = system: NCI-H23
NCI-H460 = system: NCI-H460
NCI-H522 = system: NCI-H522
OVCAR-5 = system: OVCAR-5
SK-MEL-5 = system: SK-MEL-5
SN12C = system: SN12C
SR = system: SR
TK-10 = system: TK-10
UO-31 = system: UO-31

Measured: GI50

O=C(O/N=C1/CCC/C1=C\c1ccccc1)c1ccc([N+](=O)[O-])cc1
inactive: 786-0 > 100 µM | A498 > 100 µM | ACHN > 100 µM | CCRF-CEM > 100 µM | COLO 205 > 100 µM | EKVX > 100 µM | HCT-116 > 100 µM | NCI-H226 > 100 µM | NCI-H23 > 100 µM | NCI-H460 > 100 µM | NCI-H522 > 100 µM | OVCAR-5 > 100 µM | SK-MEL-5 > 100 µM | SN12C > 100 µM | SR > 100 µM | TK-10 > 100 µM | UO-31 25.3 µM

COc1ccc2c(c1)C(=O)Cc1ccccc1CC2
inactive: 786-0 72.3 µM | A498 > 100 µM | ACHN > 100 µM | CCRF-CEM > 100 µM | COLO 205 > 100 µM | EKVX > 100 µM | HCT-116 > 100 µM | NCI-H226 > 100 µM | NCI-H23 > 100 µM | NCI-H460 > 100 µM | NCI-H522 > 100 µM | OVCAR-5 > 100 µM | SK-MEL-5 > 100 µM | SN12C > 100 µM | SR > 100 µM | TK-10 > 100 µM | UO-31 > 100 µM

CC(=O)n1c2c(c(=O)n1-c1ccccc1)[S+]([O-])CCC2 (stereo not drawn)
inactive: 786-0 40.7 µM | A498 > 100 µM | ACHN 46.8 µM | CCRF-CEM 7.5 µM | COLO 205 > 100 µM | EKVX > 95.7 µM | HCT-116 44.1 µM | NCI-H226 > 100 µM | NCI-H23 > 100 µM | NCI-H460 16.7 µM | NCI-H522 5.65 µM | OVCAR-5 > 100 µM | SK-MEL-5 62.4 µM | SN12C > 91.4 µM | SR 4.53 µM | TK-10 > 100 µM | UO-31 > 100 µM

O=C(CNC(=O)OCc1ccccc1)Oc1ccccc1
inactive: 786-0 > 100 µM | A498 > 100 µM | ACHN > 100 µM | CCRF-CEM > 100 µM | COLO 205 > 100 µM | EKVX > 100 µM | HCT-116 > 100 µM | NCI-H226 > 100 µM | NCI-H23 > 100 µM | NCI-H460 > 100 µM | NCI-H522 > 100 µM | OVCAR-5 > 100 µM | SK-MEL-5 > 100 µM | SN12C > 100 µM | SR > 100 µM | TK-10 > 100 µM | UO-31 > 100 µM
